Consider seven compounds from patent publication US8802711B2, “TRPV1 antagonists” (AbbVie Inc., priority 2011, dated 2014).

Like-named read-outs stand apart in the source and are kept apart here.

Assay [1] has as its system Sprague-Dawley rats. The assay is described as follows: Rat tail immersion assay (noxious thermosensation). The note with it: rat, 100 μmol/kg oral, one hour post dosing, 55° C. water bath, relative to vehicle; for change in vivo at 100 µmol/kg: 1 h, read-out: % Increase in tail withdrawal latency. The format is in vivo. As to the method: (§1) Adult male Sprague-Dawley rats (250-300 g body weight, Charles River Laboratories, Portage, Mich.) were used. Animal handling and experimental protocols were approved by the Institutional Animal Care and Use Committee (IACUC) at Abbott Laboratories. For all surgical procedures, animals were maintained under isoflurane anesthesia (4-5% to induce, 1-3% to maintain), and the incision sites were sterilized using a 10% povidone-iodine solution prior to and after surgeries.
Compounds were tested for their effects on noxious thermosensation using the tail immersion assay. Testing was performed one hour following oral administration of 100 μmol/kg of the compound in 10% ethanol/20% Tween-80/70% PEG-400 (2 mL/kg). Morphine (6 mg/kg) was administered interperitoneally (i.p.) using saline (2 mL/kg) as the vehicle. For testing, a circulating water bath was heated to 55° C. Thirty to sixty minutes post dosing, the rats were handled for a few seconds to calm them down and then cupped with their back against the tester's hand at a slight angle with head facing away from the tester. With rat in one hand and a 0.01 second stopwatch in the other hand, the tail was quickly immersed 6-8 cm in the water bath or to a distance leaving 2-3 cm of tail out of water. The timer was started simultaneously. When the rat flinched or attempted withdrawal, timer was immediately stopped and the rat's tail was quickly removed from water bath. This response latency (in seconds) was recorded. Process was repeated 3 times with 3-4 minutes between readings and the average response latency was calculated.
For a given example, a percent increase in the average response latency (in seconds) for tail withdrawal relative to a vehicle control was determined. % increase=[(tc−tv)/tv]×100%
tc=response latency (in seconds) with oral dosing of compounds
tv=response latency (in seconds) with oral dosing of vehicle
The % increases in tail withdrawal latency relative to vehicle control are divided into the following categories: […]

The target in assay [2] is T1, human TRPV1 receptor (hTRPV1) (Homo sapiens (Human), UniProt Q8NER1). As to the kind of experiment: Capsaicin activation assay (FLIPR intracellular Ca2+). The assay is classed as cell-based. The note with it: inhibition of capsaicin-induced intracellular Ca2+ increase, read-out: hTRPV1 cap IC50. An outline of the steps: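 Antagonism measured as [Ca2+]i fluorescence on FLIPR Tetra: compounds given 3 min ahead of capsaicin, added as 200 nM (4×), to dye-loaded hTRPV1-HEK293 cells. Response taken as baseline-subtracted peak, normalized to the 50 nM capsaicin control; 12-point one-third-log titrations.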
T1 sequence (Q8NER1 whole entry): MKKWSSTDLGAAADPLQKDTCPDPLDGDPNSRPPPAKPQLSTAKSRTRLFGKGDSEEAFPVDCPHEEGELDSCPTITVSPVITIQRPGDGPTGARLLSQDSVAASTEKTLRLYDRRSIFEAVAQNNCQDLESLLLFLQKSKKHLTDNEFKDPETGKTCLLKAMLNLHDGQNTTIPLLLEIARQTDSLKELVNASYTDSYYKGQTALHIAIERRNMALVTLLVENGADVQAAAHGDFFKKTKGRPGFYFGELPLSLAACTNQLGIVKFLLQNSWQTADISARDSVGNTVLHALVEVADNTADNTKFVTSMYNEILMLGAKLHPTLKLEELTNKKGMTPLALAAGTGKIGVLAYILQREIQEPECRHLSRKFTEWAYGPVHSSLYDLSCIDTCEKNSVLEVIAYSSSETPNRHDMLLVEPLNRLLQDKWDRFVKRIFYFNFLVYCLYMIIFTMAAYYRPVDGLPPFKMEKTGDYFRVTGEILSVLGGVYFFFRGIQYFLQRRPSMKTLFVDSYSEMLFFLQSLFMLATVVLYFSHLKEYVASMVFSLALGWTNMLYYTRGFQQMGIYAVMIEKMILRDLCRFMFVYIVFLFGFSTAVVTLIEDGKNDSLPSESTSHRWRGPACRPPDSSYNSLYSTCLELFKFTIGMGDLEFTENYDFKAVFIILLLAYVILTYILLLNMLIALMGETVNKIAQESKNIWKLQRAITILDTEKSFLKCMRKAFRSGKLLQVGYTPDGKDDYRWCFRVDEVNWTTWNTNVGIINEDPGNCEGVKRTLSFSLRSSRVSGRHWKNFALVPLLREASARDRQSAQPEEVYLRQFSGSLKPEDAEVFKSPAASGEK

The target in assay [3] is T1, human TRPV1 receptor (hTRPV1). As to the kind of experiment: Acid activation assay (pH 5.0, FLIPR intracellular Ca2+). To be noted: 37.5 μM antagonist, percentage of the maximal pH 5.0-induced response remaining, read-out: hTRPV1 H+ (max % remain). The assay is classed as cell-based. An outline of the steps: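 Antagonism of acid-evoked Ca2+ influx measured by FLIPR Calcium-4 fluorescence after a pH 5.0 DPBS/MES stimulus, with compounds preincubated 3 min over 12 half-log concentrations. Cells: stable hTRPV1-expressing 1321N1 line, dye-loaded 90–120 min in the dark at 25 °C.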

The test system of assay [4] is Sprague-Dawley rats. As to the kind of experiment: Rat acute capsaicin-induced flinching behavior. To be noted: 100 μmol/kg p.o., percent reduction in number of flinching behaviors. The format is in vivo.
Source text: as §1
Rats were placed in individual observation cages. […] One hour after administration of the test compound, 2.5 μg of capsaicin in a 10 μL solution of 10% ethanol/90% hydroxypropyl-β-cyclodextrin was injected subcutaneously into the dorsal aspect of the right hind paw. The observation cage was then suspended above mirrors in order to facilitate observation. […] The number of flinching behaviors of the injured paw was recorded during the five minute observation period (Gilchrist, H. D.; Allard, B. L.; Simone, D. A.; Enhanced withdrawal responses to heat and mechanical stimuli following intraplantar injection of capsaicin in rats. Pain, 1996, 67, 179-188). The percent reduction in the number of flinching behaviors produced with oral administration of representative compounds of the present invention relative to control-treated animals (% effect) is reported in Table 3.

The subject of assay [5] is Sprague-Dawley rats. The assay is described as follows: Sodium iodoacetate-induced knee joint osteoarthritic pain model. The assay is classed as in vivo, rat. The note with it: 10 mg/kg p.o., 1 hour after dosing, % return to normalcy of hind limb grip force.
Source text: as §1
Unilateral knee joint osteoarthritis was induced in the rats by a single intra-articular (i.a.) injection of sodium iodoacetate (3 mg in 0.05 mL sterile isotonic saline) into the right knee joint cavity under light isoflurane anesthesia using a 26 G needle. […] Pain behavioral assessment of hind limb grip force was conducted by recording the maximum compressive force exerted on the hind limb strain gauge setup, in a commercially available grip force measurement system (Columbus Instruments, Columbus, Ohio), to elicit paw withdrawal. The grip force data was converted to a maximum hindlimb cumulative compressive force (CFmax) (gram force)/kg body weight for each animal. The analgesic effects of test compounds were determined 20 days following the i.a. injection of sodium iodoacetate. The vehicle control group for each compound being tested was assigned 0% whereas the age matched naïve group was assigned as being 100% (normal). The % effect for each dose group was then expressed as % return to normalcy compared to the naïve group. Test compounds were administered orally in 10% ethanol/20% Tween 80/70% polyethylene glycol-400 vehicle at a volume of 2 mL/kg. The assessment of the analgesic effects of test compounds was made 1 hour following oral administration. The assessment of the analgesic effects of test compounds can be made following a single dose or following repeated administration wherein the frequency of dosing is 1 to 2 times daily. The duration of such repeated daily dosing may last for any time greater than one day. A typical duration of repeated daily dosing is about 5 days to about 12 days.

Where [6] appears, read: Table 1, HEK293 cells expressing human TRPV1.

What is called IC50 is the concentration that gives 50% inhibition. In the case of `O=C(Nc1cccc2[nH]ncc12)N[C@@H]1C=C[C@H](c2ccccc2)C1` [Example 48, 1-(1H-indazol-4-yl)-3-[(1S,4R)-4-phenylcyclopent-2-en-1-yl]urea], the “% Increase in tail withdrawal latency” value in assay [1] is “−”. The IC50 in assay [2] (setting [6]) and in assay [2] (Table 2) was 42 nM throughout. Further, the remaining activity at 37.5 µM in assay [3] (Table 1) and in assay [3] (Table 2) was 49% in each case.

Regarding `Cn1c(=O)ccc2c(NC(=O)N[C@@H]3CC[C@H](c4ccccc4)C3)cccc21` [Example 51, 1-(1-methyl-2-oxo-1,2-dihydroquinolin-5-yl)-3-((1R,3S)-3-phenylcyclopentyl)urea], the “% effect” value in assay [4] worked out at 30%. The “% Increase in tail withdrawal latency” value in assay [1] was “−”. For the same compound, the IC50 in assay [2] (setting [6]) and in assay [2] (Table 2) was 13 nM each time. For the same compound, the remaining activity at 37.5 µM in assay [3] (Table 1) and in assay [3] (Table 2) was 56% in each case.

Consider `O=C(Nc1cccc2[nH]ncc12)N[C@@H]1CC[C@H](c2ccccc2F)C1` [Example 61, 1-[(1R,3S)-3-(2-fluorophenyl)cyclopentyl]-3-(1H-indazol-4-yl)urea], for which the “% effect” value in assay [5] was determined as 34%. Further, the IC50 in assay [2] (setting [6]) is 32 nM. Also, in assay [3] (Table 1), the remaining activity at 37.5 µM worked out at 44%.

For the compound `O=C(Nc1cccc2[nH]ncc12)N[C@H]1CC[C@H](c2cccc(F)c2)C1` [Example 64, 1-[(1S,3S)-3-(3-fluorophenyl)cyclopentyl]-3-(1H-indazol-4-yl)urea], in assay [5], the “% effect” value is on record as 48%. The IC50 in assay [2] (setting [6]) came out at 29 nM. The remaining activity at 37.5 µM in assay [3] (Table 1) stood at 25%.

Take `O=C(Nc1cccc2[nH]ncc12)N[C@@H]1CC[C@@H](c2ccccc2F)C1` [Example 66, 1-[(1R,3R)-3-(2-fluorophenyl)cyclopentyl]-3-(1H-indazol-4-yl)urea]: the change in vivo at 100 µmol/kg in assay [1] was above 25%. In addition, the IC50 in assay [2] (setting [6]) amounted to 8.2 nM; in assay [2] (Table 2) it was 8 nM. The remaining activity at 37.5 µM in assay [3] (Table 1) and in assay [3] (Table 2) was 29% throughout.

Regarding `Cn1c(=O)ccc2c(NC(=O)N[C@@H]3CC[C@@H](c4cccc(F)c4)C3)cccc21` [Example 78, 1-[(1R,3R)-3-(3-fluorophenyl)cyclopentyl]-3-(1-methyl-2-oxo-1,2-dihydroquinolin-5-yl)urea], in assay [1], the change in vivo at 100 µmol/kg lay within 10 to 25%. Further, the IC50 in assay [2] (setting [6]) came out at 6.5 nM; in assay [2] (Table 2), 7 nM. The remaining activity at 37.5 µM in assay [3] (Table 1) and in assay [3] (Table 2) was 78% in each case.

Consider `CN1C(=O)CCc2c(NC(=O)N[C@H]3CC[C@H](c4ccccc4)C3)cccc21` [Example 96, 1-(1-methyl-2-oxo-1,2,3,4-tetrahydroquinolin-5-yl)-3-[(1S,3S)-3-phenylcyclopentyl]urea], for which the change in vivo at 100 µmol/kg in assay [1] was 10 to 25%. The IC50 in assay [2] (setting [6]) and in assay [2] (Table 2) was 63 nM throughout. For the same compound, the remaining activity at 37.5 µM in assay [3] (Table 1) and in assay [3] (Table 2) was 66% each time.
